This is an account of results in ChEMBL document CHEMBL3808382, “Discovery and Structure-Activity Relationship of a Bioactive Fragment of ELABELA that Modulates Vascular and Cardiac Functions” (J Med Chem, 2016).

One data set has as its system Plasma. The data set can be described thus: Drug level in rat plasma treated with ELA at 37 degC after 2 hrs by HPLC-MS analysis. Format: ADME, cell-free.
Data set [1] concerns Rattus norvegicus. The data set can be described thus: Hypotensive activity in anesthetized Sprague-Dawley rat assessed as induction of hypotensive rebound at 6.5 to 293 nmol/kg, iv as bolus dose. Format: functional, organism-based.
The subject of data set [2] is Rattus norvegicus. Put plainly: Hypotensive activity in anesthetized Sprague-Dawley rat assessed as maximal change in heart rate at 293 nmol/kg, iv as bolus dose. Format: functional, organism-based.
For data set [3], the system named is Heart. Put plainly: Inotropic activity in Langendorff perfused Sprague-Dawley rat heart assessed as increase in left ventricular developed pressure at 0.03 nM relative to control. Format: functional. Particulars: Heart left ventricle.
The test system of data set [4] is Rattus norvegicus. Put plainly: Inotropic activity in Sprague-Dawley rat assessed as induction of left ventricular fractional shortening at 36 pmol/g/min, iv through 24 hrs infusion measured after 6 to 24 hrs by echocardiography. The format is functional, organism-based. Particulars: Heart left ventricle.
The subject of data set [5] is Rattus norvegicus. Put plainly: Increase in daily urine output in Sprague-Dawley rat at 36 pmol/g/min, iv through 24 hrs infusion measured during compound dosing. The format is functional, organism-based.
The test system of data set [6] is Rattus norvegicus. The data set can be described thus: Change in water intake in Sprague-Dawley rat at 36 pmol/g/min, iv through 24 hrs infusion measured during compound dosing. The format is functional, organism-based.
The test system of data set [7] is Rattus norvegicus. The data set can be described thus: Change in plasma volume in Sprague-Dawley rat at 36 pmol/g/min, iv through 24 hrs infusion measured during compound dosing. The format is functional, organism-based.
Data set [8] relates to Rattus norvegicus. Put plainly: Decrease in urine osmolality in Sprague-Dawley rat at 36 pmol/g/min, iv through 24 hrs infusion relative to control. The format is functional, organism-based.
For data set [9], the system named is Rattus norvegicus. Put plainly: Decrease in Na+ concentration in Sprague-Dawley rat urine at 36 pmol/g/min, iv through 24 hrs infusion relative to control. Format: functional, organism-based.
Data set [10] concerns Rattus norvegicus. The data set can be described thus: Decrease in K+ concentration in Sprague-Dawley rat urine at 36 pmol/g/min, iv through 24 hrs infusion relative to control. The format is functional, organism-based.
For data set [11], the system named is Rattus norvegicus. Put plainly: Hypotensive activity in anesthetized Sprague-Dawley rat assessed as drop in mean arterial pressure at 650 nmol/kg, iv as bolus dose. The format is functional, Artery.
Data set [12] in a line: Half life in rat plasma at 37 degC. Format: ADME, cell-free.
Data set [13] relates to Heart. The data set can be described thus: Inotropic activity in Langendorff perfused Sprague-Dawley rat heart assessed as increase in left ventricular developed pressure. Format: functional, tissue-based. Conditions: Heart left ventricle.
For data set [14], the system named is Rattus norvegicus. Put plainly: Hypotensive activity in anesthetized Sprague-Dawley rat at 65 nmol/kg, iv as bolus dose. The format is functional, organism-based.
In data set [15] the target is T1, Apelin receptor (Homo sapiens, UniProt P35414).
T1 sequence (P35414 whole entry): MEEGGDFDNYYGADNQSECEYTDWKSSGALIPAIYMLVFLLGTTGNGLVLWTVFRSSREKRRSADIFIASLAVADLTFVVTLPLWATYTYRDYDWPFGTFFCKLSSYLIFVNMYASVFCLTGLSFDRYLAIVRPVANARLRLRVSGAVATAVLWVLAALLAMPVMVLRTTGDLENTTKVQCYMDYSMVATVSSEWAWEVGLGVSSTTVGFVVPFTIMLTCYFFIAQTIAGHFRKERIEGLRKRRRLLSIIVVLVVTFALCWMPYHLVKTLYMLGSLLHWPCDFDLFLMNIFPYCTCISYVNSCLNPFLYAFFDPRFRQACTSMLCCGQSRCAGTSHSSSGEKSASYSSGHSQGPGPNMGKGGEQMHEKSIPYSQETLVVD
Put plainly: biochemical. The format is cell-based, HEK293.

The target of data set [16] is T1, Apelin receptor. Put plainly: Agonist activity at human APJ receptor expressed in HEK-293 cells assessed as dissociation of G-alpha-i1 protein after 5 mins by BRET assay. Format: cell-based, HEK293. (In general: In BRET a luciferase serves as donor, and the signal depends on an acceptor being close.)
Data set [17] deals with T1, Apelin receptor. Put plainly: Agonist activity at human APJ receptor expressed in HEK-293 cells assessed as beta-arrestin2 recruitment after 30 mins by BRET assay. The format is cell-based, HEK293.

Broadly, the half-life is the time needed for the level to fall by half in the phase considered. Low values mean rapid decline, high ones slow decline. For orientation: EC50 means the concentration needed to bring the measured effect to its halfway point. As usually defined, the Ki is a measure of affinity in units of concentration, obtained from inhibition or displacement.

The source made the active and inactive calls. A value given as a limit tells only on which side of the number the result lay.

As to H-QRPVNLTMR-OH, in the data set on Plasma, the Drug metabolism result was “metabolite_detected”.
As for `CSCC[C@@H](NC(=O)[C@@H](CS)NC(=O)[C@@H](CCCNC(=N)N)NC(=O)[C@H](CCCNC(=N)N)NC(=O)[C@H]1CCC(=O)N1)C(=O)N1CCC[C@@H]1C(=O)N[C@H](CC(C)C)C(=O)N[C@H](Cc1cnc[nH]1)C(=O)N[C@H](CO)C(=O)N[C@H](CCCNC(=N)N)C(=O)N[C@@H](C(=O)N1CCC[C@@H]1C(=O)N[C@H](Cc1ccccc1)C(=O)N1CCC[C@@H]1C(=O)O)C(C)C`, the result in the data set with Rattus norvegicus [1], with Rattus norvegicus [6] and in the data set on Rattus norvegicus [7] was inactive. In addition, the outcome in the data set on Rattus norvegicus [2], with Heart [3], in the data set with Rattus norvegicus [4], in the data set with Rattus norvegicus [5], with Rattus norvegicus [8] and with Rattus norvegicus [9] was Active. The result in the data set on Rattus norvegicus [10] was Active.
With `CSCC[C@H](NC(=O)[C@@H](N)CS)C(=O)N1CCC[C@H]1C(=O)N[C@@H](CC(C)C)C(=O)N[C@@H](Cc1cnc[nH]1)C(=O)N[C@@H](CO)C(=O)N[C@@H](CCCNC(=N)N)C(=O)N[C@H](C(=O)N1CCC[C@H]1C(=O)N[C@@H](Cc1ccccc1)C(=O)N1CCC[C@H]1C(=O)O)C(C)C`, the Activity in the data set with Rattus norvegicus [11] turned out to be 10 mmHg.
With `CSCC[C@H](NC(=O)[C@H](CS)NC(=O)[C@H](CCCNC(=N)N)NC(=O)[C@H](CCCNC(=N)N)NC(=O)[C@@H]1CCC(=O)N1)C(=O)N1CCC[C@H]1C(=O)N[C@@H](CC(C)C)C(=O)N[C@@H](Cc1cnc[nH]1)C(=O)N[C@@H](CO)C(=O)N[C@@H](CCCNC(=N)N)C(=O)N[C@H](C(=O)N1CCC[C@H]1C(=O)N[C@@H](Cc1ccccc1)C(=O)N1CCC[C@H]1C(=O)O)C(C)C`, the half-life in data set [12] was less than 2 min. Moreover, the EC50 in the data set with Heart [13] worked out at 0.0015 nM.
Regarding `CSCC[C@H](NC(=O)[C@H](N)CS)C(=O)N1CCC[C@H]1C(=O)N[C@@H](CC(C)C)C(=O)N[C@@H](Cc1cnc[nH]1)C(=O)N[C@@H](CO)C(=O)N[C@@H](CCCNC(=N)N)C(=O)N[C@H](C(=O)N1CCC[C@H]1C(=O)N[C@@H](Cc1ccccc1)C(=O)N1CCC[C@H]1C(=O)O)C(C)C`, the result in the data set with Rattus norvegicus [14] was inactive.
`CSCC[C@H](NC(=O)[C@@H]1CSSC[C@H](N)C(=O)N[C@@H](CC(C)C)C(=O)N[C@@H](CCC(N)=O)C(=O)N[C@@H](CCCNC(=N)N)C(=O)N[C@@H](CCCNC(=N)N)C(=O)N1)C(=O)N1CCC[C@H]1C(=O)N[C@@H](CC(C)C)C(=O)N[C@@H](Cc1cnc[nH]1)C(=O)N[C@@H](CO)C(=O)N[C@@H](CCCNC(=N)N)C(=O)N[C@H](C(=O)N1CCC[C@H]1C(=O)N[C@@H](Cc1ccccc1)C(=O)N1CCC[C@H]1C(=O)O)C(C)C`: the affinity at Apelin receptor [15] corresponds to a Ki of 0.23 nM. Further, the EC50 at Apelin receptor [16] is 6.6 nM; at Apelin receptor [17], 151 nM.
With `CSCC[C@H](NC(=O)[C@@H]1CSSC[C@H](NC(=O)[C@H](CC(N)=O)NC(=O)[C@H](Cc2c[nH]cn2)NC(=O)[C@H](CCCCN)NC(=O)[C@H](CCCNC(=N)N)NC(=O)[C@H](CC(C)C)NC(=O)[C@@H](N)CCCCN)C(=O)N[C@@H](CC(C)C)C(=O)N[C@@H](CCC(N)=O)C(=O)N[C@@H](CCCNC(=N)N)C(=O)N[C@@H](CCCNC(=N)N)C(=O)N1)C(=O)N1CCC[C@H]1C(=O)N[C@@H](CC(C)C)C(=O)N[C@@H](Cc1c[nH]cn1)C(=O)N[C@@H](CO)C(=O)N[C@@H](CCCNC(=N)N)C(=O)N[C@H](C(=O)N1CCC[C@H]1C(=O)N[C@@H](Cc1ccccc1)C(=O)N1CCC[C@H]1C(=O)O)C(C)C`, the Drug metabolism entry with Plasma is “metabolite_detected”.
